Laboratory results from ChEMBL document CHEMBL1201862, “PubChem BioAssay data set” (2004).
Activity calls are given as the source filed them.

Experiments:
[1] = viability loss of HPDE-C7K cells – cell-based, fluorescence, HTS, primary screen (AID 431); type: functional; conditions: Homo sapiens
[2] = molecular target: Melanin-concentrating hormone receptor 1 (Homo sapiens, UniProt Q99705); assay: Fluorescence-based counterscreen for antagonists of the G-protein coupled receptor 7 (GPR7): cell-based high throughput dose response assay to identify antagonists of the melanin-concentrating hormone receptor 1 (MCHR1).; type: functional
[3] = molecular target: Neuropeptides B/W receptor type 1 (Homo sapiens, UniProt P48145); assay: Fluorescence-based dose response cell-based high throughput screening assay to identify antagonists of the G-protein coupled receptor 7 (GPR7). [Related pubchem assays: 1952 (Screening assay (GPR7 antagonists).), 1880 (Summary AID.)]; type: functional
[4] = HPDE-C7 pancreatic duct cell viability loss – fluorescence, HTS (AID 430); type: functional, cell-based; conditions: Homo sapiens
[5] = luciferase reporter signal suppression in cells – H4 neuroglioma cells, luminescence, dose response (AID 1990); type: functional, cell-based
Mucolipin-3 [6] = molecular target: T1, Mucolipin-3 (Homo sapiens, UniProt Q8TDD5); assay: Dose response cell-based high-throughput screening assay for agonists of the transient receptor potential channel ML3 (TRPML3). [Related pubchem assays: 1526, 1424, 1448 ]; type: functional
T1 sequence (Q8TDD5 whole entry): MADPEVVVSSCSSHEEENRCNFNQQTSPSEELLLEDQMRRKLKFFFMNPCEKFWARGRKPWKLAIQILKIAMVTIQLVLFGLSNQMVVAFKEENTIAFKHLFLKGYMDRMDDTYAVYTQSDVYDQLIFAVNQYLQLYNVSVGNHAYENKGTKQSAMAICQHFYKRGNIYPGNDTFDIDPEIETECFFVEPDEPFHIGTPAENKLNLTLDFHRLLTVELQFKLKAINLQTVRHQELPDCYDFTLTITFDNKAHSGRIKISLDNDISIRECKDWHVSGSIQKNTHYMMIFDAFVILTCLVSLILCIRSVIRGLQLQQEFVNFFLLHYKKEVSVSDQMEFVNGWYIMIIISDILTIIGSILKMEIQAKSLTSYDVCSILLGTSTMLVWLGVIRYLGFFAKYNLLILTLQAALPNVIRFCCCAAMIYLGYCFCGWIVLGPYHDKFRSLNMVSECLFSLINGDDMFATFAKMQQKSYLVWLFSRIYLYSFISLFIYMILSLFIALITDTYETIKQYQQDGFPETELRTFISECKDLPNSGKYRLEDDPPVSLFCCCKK

[7] = alpha-synuclein stem-loop luciferase translation blockers – H4 neuroglioma cells, luminescence, confirmation (AID 1988); type: functional, cell-based
Ion channel NompC [8] = molecular target: T2, Ion channel NompC (Danio rerio, UniProt Q7T1G6); assay: activators of mucolipin-3 and mucolipin-2 – cell-based, […], Fura-2 profiling panel, panel member TRPN1 Dose Response (AID 2116)
Ion channel NompC [9] = molecular target: T2, Ion channel NompC; assay: Fluorescence counterscreen assay for TRPML3 agonists: dose response cell-based high-throughput screening assay to identify agonists of the transient receptor potential channel N1 (TRPN1). [Related pubchem assays: 1526, 1424, 1448 ]; type: functional
Mucolipin-3 [10] = molecular target: T1, Mucolipin-3; assay: activators of mucolipin-3 and mucolipin-2 – cell-based, patch clamp, Fura-2 profiling panel, panel member TRPML3 Dose Response (AID 2116)
[11] = Luminescence Cell-Based Dose Response HTS to Identify Inhibitors of 5'UTR Stem-Loop Driven Prion Protein mRNA Translation in H4 Neuroglioblastoma Cells. [Related pubchem assays: 1827 (Project Summary), 1813 (Primary HTS)]; type: functional
[12] = HEK-293T viability loss after treatment – luminescence, T-cell screen hits, cytotoxicity control for TCR NF-kB inhibitor project, dose response (AID 489026); type: functional, cell-based;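 note: cells exposed to compound about 14 hours before the viability readout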
HeLa = assay: viability loss in HeLa cells – cell-based, 24 h, cherry-picked samples, cytotoxicity control, dose response (AID 504726); type: functional; conditions: Homo sapiens;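 note: potency for cytotoxicity as loss of luminescence signal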
Keap1/Nrf2 = Keap1/Nrf2 (Homo sapiens, UniProt Q14145); assay: disruptors of Keap1 binding to Nrf2 peptide – biochemical, fluorescence polarization, cherry-picked samples, dose response (AID 588683)
ORF 73 = ORF 73 (Human herpesvirus 8, UniProt O40947); assay: KSHV LANA DNA-binding disruption – biochemical, fluorescence polarization, cherry-picked samples, dose response (AID 504725); set-up: species or system Human gammaherpesvirus 8;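 note: fluorescence polarization of a labeled DNA duplex reporting LANA DNA binding; potency is for inhibitors that block LANA binding to the DNA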
[13] = molecular target: T3, Eukaryotic translation initiation factor 2-alpha kinase 3 (Homo sapiens, UniProt Q9NZJ5); assay: Counterscreen assay for PERK inhibitors: Dose response cell-based high throughput screening assay to measure inhibition of PERK at 6 hours. [Related pubchem assays: 1522, 1416 ]; type: functional
[14] = molecular target: T3, Eukaryotic translation initiation factor 2-alpha kinase 3; assay: Dose response cell-based high-throughput screening assay to measure PERK inhibition. [Related pubchem assays: 1416 ]; type: functional
[15] = NIH3T3 cell viability loss – ATP luminescence, mouse fibroblasts, counter-screen, dose response (AID 2010); type: functional, cell-based;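 note: cells exposed to compound for about 90 hours before reading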
cells [16] = type: functional
[17] = THP-1 cell cytotoxicity, dose response, cytotoxicity control for non-replicating M. tuberculosis project (AID 489025); type: functional
[18] = HepG2 cell cytotoxicity, dose response, cytotoxicity control for non-replicating M. tuberculosis project (AID 489018); type: functional; conditions: Mycobacterium tuberculosis
[19] = Trypanosoma cruzi growth suppression in host cells – NIH3T3 host cells, beta-gal luminescence, confirmation (AID 2044); type: functional, cell-based;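 note: intracellular parasites grown in NIH/3T3 mouse fibroblasts as host cells; luminescent beta-galactosidase reporter signal from transgenic T. cruzi replicating inside host cells; inhibitors lower the luminescence signal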
[20] = Vero E6 cell cytotoxicity, dose response, cytotoxicity control for non-replicating M. tuberculosis project, secondary assay (AID 492998); type: functional, VeroE6; conditions: Vero C1008
cells [21] = type: functional, cell-based
Vero [22] = assay: cells; type: functional; conditions: Chlorocebus sabaeus
Vero [23] = assay: host cell viability loss, Vero E6 – synthesized analogs, cytotoxicity control for West Nile virus antiviral project, SAR follow-up (AID 2244); type: functional; conditions: Chlorocebus sabaeus
BJ [24] = assay: BJ-TERT fibroblast viability loss – cell-based, RAS-independent, luminescence, dose response (AID 1933); type: functional; conditions: Homo sapiens
[25] = fluconazole-exposed Candida albicans growth modulators – fluorescence, retest, confirmation (AID 2467); type: functional, cell-based
INS1 = assay: INS-1E survival protection against cytokine death – cell-based, luminescence, retest, dose response (AID 449756); type: functional; conditions: Rattus norvegicus;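 note: cell death triggered by IL-1 beta plus TNF-alpha plus IFN-gamma mixture; protective hits raise ATP signal compared with cytokine alone wells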
Vero [26] = assay: Vero cell viability after compound exposure – synthesized analogs, set II, cytotoxicity control for West Nile virus antiviral project, SAR follow-up (AID 2402); type: functional; conditions: Chlorocebus sabaeus
BJ [27] = assay: cells; type: functional, cell-based; conditions: Homo sapiens
[28] = NIH-3T3 fibroblast cytotoxicity, dose response, cytotoxicity control, cell-based, fluorescence, Alamar Blue, secondary assay (AID 2327); type: functional;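 note: NIH-3T3 mouse fibroblasts cultured with fluconazole at 8 µg/mL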
[29] = A Cell Based Assay for the Identification of Probe candidate Compounds with Anti- Venezuelan Equine Encephalitis virus. [Related pubchem assays: 2409, 2419, 1621, 2238, 2405, 2024, 2065, 2402, 2414, 1635, 1650, 2244 ]; type: functional
[30] = loss of viability in HepG2 cells – cell-based, CellTiter-Glo, cherry-picked, cytotoxicity control for Shn3 inhibitor project, dose response (AID 624134); type: functional
Streptococcus = assay: GAS UMAA2166 growth inhibition – luminescence, BacTiterGlo, counter-screen for streptokinase expression inhibitor project, dose response (AID 1915); type: functional, organism-based;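 note: potency for reduction of bacterial viability or growth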
Vero [31] = assay: Vero 76 cell viability after compound exposure – Vero 76 cells, synthesized analogs, cytotoxicity control for West Nile virus antiviral project, SAR follow-up (AID 2414); type: functional; conditions: Chlorocebus sabaeus
[32] = reduction of Shn3 3'UTR-driven luciferase in osteoblasts – cell-based, Clone20 osteoblasts, firefly luciferase, cherry-picked, dose response (AID 624132); type: functional;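 note: firefly luciferase luminescence from reporter carrying the Shn3 3'UTR in osteoblasts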
[33] = tested on: Streptococcus sp. 'group A'; assay: Streptococcus pyogenes SK(-)GAS viability under kanamycin – luminescence, BacTiterGlo, confirmation, counter-screen for streptokinase expression inhibitor project, dose response (AID 1900); type: functional, organism-based
cells [34] = type: functional, cell-based; remark: listed apart in the source
[35] = DRD fibroblast viability loss – cell-based, non-viral oncogenic, luminescence, dose response (AID 1934); type: functional; conditions: Homo sapiens
BJ [36] = assay: BJ-TERT-LT-ST fibroblast viability loss – cell-based, RAS-independent, luminescence, dose response (AID 1935); type: functional; conditions: Homo sapiens;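 note: BJ fibroblasts immortalized with TERT plus LT and ST oncogenes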
[37] = non-specific 3'UTR reporter inhibition in Clone20-Shn3RL – cell-based, Renilla luciferase, cherry-picked, counter-screen for Shn3 inhibitor project, dose response (AID 624133); type: functional

T2 sequence (Q7T1G6 whole entry): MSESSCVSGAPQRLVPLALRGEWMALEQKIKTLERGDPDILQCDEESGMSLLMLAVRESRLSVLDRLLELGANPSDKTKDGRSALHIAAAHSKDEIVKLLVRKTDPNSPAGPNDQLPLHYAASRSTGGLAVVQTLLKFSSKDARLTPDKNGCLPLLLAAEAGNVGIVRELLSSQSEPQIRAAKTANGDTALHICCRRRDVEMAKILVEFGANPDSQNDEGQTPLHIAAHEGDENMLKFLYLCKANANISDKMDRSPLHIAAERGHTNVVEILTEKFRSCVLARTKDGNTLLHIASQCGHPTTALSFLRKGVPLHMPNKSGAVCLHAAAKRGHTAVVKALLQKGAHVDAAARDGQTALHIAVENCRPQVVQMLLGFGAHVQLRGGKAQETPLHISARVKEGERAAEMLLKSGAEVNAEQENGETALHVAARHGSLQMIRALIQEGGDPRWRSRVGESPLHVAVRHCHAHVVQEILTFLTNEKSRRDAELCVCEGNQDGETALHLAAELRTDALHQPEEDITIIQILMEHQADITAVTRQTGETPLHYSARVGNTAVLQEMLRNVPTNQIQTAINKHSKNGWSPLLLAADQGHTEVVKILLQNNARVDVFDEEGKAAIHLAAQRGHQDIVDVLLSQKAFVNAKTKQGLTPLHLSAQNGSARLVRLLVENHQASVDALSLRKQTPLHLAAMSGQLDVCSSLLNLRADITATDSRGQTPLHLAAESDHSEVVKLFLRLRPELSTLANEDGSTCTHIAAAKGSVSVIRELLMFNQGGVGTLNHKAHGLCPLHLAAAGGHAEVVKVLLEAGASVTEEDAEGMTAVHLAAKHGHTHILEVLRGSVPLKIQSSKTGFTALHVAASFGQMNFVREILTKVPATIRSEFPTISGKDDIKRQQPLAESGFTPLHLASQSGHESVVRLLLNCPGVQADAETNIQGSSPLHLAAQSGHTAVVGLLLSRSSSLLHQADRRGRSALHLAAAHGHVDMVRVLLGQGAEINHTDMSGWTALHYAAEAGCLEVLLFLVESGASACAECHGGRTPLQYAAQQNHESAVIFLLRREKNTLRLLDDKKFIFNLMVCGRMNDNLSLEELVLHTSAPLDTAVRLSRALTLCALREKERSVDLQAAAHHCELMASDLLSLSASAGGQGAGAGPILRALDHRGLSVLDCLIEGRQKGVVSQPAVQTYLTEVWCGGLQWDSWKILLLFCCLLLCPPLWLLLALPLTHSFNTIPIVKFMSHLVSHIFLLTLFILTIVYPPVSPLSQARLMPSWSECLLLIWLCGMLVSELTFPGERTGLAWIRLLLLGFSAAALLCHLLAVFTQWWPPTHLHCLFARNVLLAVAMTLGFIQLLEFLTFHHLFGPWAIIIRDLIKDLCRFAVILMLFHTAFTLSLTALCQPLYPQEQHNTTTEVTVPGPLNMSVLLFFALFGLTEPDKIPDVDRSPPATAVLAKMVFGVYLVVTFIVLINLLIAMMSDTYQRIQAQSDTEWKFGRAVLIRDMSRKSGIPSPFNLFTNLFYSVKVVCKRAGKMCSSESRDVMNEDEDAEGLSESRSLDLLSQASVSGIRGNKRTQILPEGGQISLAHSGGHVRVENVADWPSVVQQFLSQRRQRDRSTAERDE
T3 sequence (Q9NZJ5 whole entry): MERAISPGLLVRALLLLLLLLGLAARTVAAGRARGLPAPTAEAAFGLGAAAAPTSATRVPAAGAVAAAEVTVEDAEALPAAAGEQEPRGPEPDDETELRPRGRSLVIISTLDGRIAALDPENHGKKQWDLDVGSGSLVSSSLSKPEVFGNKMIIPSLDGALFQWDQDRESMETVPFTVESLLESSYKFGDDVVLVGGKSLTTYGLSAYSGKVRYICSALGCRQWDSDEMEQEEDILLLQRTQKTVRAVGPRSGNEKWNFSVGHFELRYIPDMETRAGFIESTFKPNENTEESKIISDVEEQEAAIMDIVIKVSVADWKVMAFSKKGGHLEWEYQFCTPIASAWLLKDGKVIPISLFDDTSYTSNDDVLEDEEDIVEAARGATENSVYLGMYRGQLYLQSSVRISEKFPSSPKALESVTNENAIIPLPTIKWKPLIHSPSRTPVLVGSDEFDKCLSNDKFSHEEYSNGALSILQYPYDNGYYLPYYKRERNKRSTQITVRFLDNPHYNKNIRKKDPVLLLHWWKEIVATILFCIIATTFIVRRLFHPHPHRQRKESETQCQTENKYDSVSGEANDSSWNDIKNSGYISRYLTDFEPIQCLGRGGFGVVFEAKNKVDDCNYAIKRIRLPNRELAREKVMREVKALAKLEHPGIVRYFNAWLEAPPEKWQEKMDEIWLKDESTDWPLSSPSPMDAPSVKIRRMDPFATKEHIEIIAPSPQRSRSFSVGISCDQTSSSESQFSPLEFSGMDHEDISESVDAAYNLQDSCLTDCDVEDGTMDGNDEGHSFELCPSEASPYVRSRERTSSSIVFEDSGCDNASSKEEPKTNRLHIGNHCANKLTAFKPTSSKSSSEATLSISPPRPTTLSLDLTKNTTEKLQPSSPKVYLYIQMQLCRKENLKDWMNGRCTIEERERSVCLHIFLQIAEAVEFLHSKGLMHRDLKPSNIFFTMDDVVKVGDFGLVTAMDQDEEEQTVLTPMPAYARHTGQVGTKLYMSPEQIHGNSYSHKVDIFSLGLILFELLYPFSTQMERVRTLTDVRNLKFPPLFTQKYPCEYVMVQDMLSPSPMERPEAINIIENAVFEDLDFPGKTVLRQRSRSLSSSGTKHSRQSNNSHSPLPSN
Chain of Neuropeptides B/W receptor type 1 (P48145 whole entry): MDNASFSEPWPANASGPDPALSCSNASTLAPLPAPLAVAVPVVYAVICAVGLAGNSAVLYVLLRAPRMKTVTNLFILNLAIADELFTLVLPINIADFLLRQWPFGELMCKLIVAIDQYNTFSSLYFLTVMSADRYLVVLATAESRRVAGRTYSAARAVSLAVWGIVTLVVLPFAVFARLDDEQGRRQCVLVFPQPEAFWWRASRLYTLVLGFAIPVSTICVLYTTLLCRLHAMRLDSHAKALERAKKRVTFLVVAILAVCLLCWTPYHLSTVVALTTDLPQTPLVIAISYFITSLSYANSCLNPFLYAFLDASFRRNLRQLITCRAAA
Chain of ORF 73 (O40947 whole entry): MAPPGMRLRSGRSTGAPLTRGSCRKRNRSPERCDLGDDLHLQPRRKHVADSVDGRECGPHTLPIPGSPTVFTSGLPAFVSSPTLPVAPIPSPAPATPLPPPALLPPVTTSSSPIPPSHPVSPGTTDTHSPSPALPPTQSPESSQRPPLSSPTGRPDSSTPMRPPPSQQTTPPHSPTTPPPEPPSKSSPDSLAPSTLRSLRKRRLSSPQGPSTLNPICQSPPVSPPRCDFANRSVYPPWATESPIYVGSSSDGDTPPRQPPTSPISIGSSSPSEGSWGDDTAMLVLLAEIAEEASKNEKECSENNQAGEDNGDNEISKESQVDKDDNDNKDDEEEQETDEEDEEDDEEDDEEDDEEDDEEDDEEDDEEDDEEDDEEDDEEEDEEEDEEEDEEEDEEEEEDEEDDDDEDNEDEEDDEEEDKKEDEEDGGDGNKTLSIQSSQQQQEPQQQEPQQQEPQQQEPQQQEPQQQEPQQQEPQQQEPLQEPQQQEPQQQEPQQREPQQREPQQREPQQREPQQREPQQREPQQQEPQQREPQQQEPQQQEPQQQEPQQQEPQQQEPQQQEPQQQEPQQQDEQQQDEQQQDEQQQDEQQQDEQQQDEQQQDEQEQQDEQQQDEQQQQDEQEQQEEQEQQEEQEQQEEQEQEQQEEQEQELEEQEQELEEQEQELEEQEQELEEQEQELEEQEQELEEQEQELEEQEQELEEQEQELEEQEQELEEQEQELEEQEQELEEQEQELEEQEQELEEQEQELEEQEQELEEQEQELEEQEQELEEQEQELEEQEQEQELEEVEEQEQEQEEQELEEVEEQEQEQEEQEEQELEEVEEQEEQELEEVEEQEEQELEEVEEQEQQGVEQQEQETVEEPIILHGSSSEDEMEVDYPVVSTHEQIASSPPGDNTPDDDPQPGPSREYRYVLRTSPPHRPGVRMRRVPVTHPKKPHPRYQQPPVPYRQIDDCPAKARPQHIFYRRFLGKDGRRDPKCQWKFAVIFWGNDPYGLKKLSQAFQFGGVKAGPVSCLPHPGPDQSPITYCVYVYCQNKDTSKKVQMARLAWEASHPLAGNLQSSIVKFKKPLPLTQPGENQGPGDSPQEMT
Chain of Melanin-concentrating hormone receptor 1 (Q99705 whole entry): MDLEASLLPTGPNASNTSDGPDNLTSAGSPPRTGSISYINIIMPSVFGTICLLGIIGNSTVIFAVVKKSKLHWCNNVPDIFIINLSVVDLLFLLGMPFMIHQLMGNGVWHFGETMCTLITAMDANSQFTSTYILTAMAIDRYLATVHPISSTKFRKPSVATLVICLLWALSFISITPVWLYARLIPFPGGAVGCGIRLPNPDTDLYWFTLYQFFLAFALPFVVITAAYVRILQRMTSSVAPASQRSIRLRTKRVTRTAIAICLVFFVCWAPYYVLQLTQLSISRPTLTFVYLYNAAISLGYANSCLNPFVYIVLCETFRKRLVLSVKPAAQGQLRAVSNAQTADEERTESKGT

CCc1ccccc1NC(=O)CN1C(=O)C2CCCN2c2ncc(Cl)cc21 (configuration not stated)
EC50 [1]: > 20 µM (not active)
IC50 [2]: > 43.8 µM (not active)
IC50 [3]: > 43.8 µM (not active)
EC50 [4]: > 20 µM (not active)

Cc1ccc(S(=O)(=O)Nc2ccccc2-c2ccccc2)cc1
EC50 [5]: > 120 µM (not active)
EC50 (Mucolipin-3 [6]): 1.59 µM (active)
EC50 [7]: 11.2 µM (active)
EC50 (Ion channel NompC [8]): > 29.9 µM (inactive)
EC50 (Ion channel NompC [9]): > 29.9 µM (not active)
EC50 (Mucolipin-3 [10]): 2.14 µM (active)
EC50 [11]: > 120 µM (not active)
IC50 [12]: 79.9 µM (inactive)

Cc1cccc(N2C(=O)c3cccc4c(N(C)CCO)ccc(c34)C2=O)c1
AC50 (HeLa): 324 µM (active)
AC50 (Keap1/Nrf2): 22.6 µM (active)
AC50 (ORF 73): 204 µM (active)

COC(=O)c1ccc(OCCOc2ccc(C(=O)OC)cc2)cc1
EC50 [13]: > 55.7 µM (not active)
EC50 [14]: > 55.7 µM (not active)

CC(=O)Nc1nc2ccccc2n1Cc1ccc(C)cc1
EC50 [15]: 7.78 µM (active)
IC50 (cells [16]): 2.73 µM (active)
CC50 [17]: > 40 µM (active)
CC50 [18]: > 20 µM (active)
EC50 [19]: 3.92 µM (active)
CC50 [20]: > 20 µM (active)

Oc1ccccc1C(Nc1nccs1)c1ccc2cccnc2c1O (configuration not stated)
EC50 (cells [21]): > 350 µM (not active)
EC50 [5]: 11.9 µM (active)
EC50 [15]: 9.11 µM (active)
CC50 (Vero [22]): 10.3 µM (active)
EC50 [7]: 9.59 µM (active)
CC50 (Vero [23]): 8 µM (active)
EC50 (BJ [24]): 8.13 µM (inconclusive)
EC50 [25]: 1.4 µM (active)
AC50 (INS1): 1.95 µM (active)
CC50 (Vero [26]): 7.2 µM (active)
EC50 (BJ [27]): 13.9 µM (active)
EC50 [28]: 6.03 µM (active)
IC50 [29]: 20.9 µM (active)
AC50 [30]: 6.74 µM (active)
EC50 (Streptococcus): 6.55 µM (active)
CC50 (Vero [31]): 21.6 µM (active)
AC50 [32]: 1.13 µM (active)
EC50 [33]: 2.3 µM (active)
EC50 [19]: 0.832 µM (active)
EC50 (cells [34]): 12.5 µM (active)
EC50 [35]: 10.7 µM (active)
EC50 (BJ [36]): 9.11 µM (active)
EC50 [11]: 8.46 µM (active)
AC50 [37]: 2.47 µM (active)
